Measured values published in US20210289794A1, “COMPOSITIONS AND RELATED METHODS FOR AGRICULTURE” (Flagship Pioneering Innovations V, Inc., priority 2018, published 2021).
Peptide text beside a SMILES is read from it.

System: Candidatus Pantoea carbekii
Assay: Quantification of P. carbekii titers by RT-qPCR in H. halys nymphs hatched from treated eggs
Format: in vivo, Halyomorpha halys
Conditions: for levels of P. carbekii (symbiont levels per host; ratio of P. carbekii dnaK to H. halys 60s expression): Example 5: egg mass treatment, late 2nd instars, vs water control, FIG. 5; for levels of P. carbekii (ratio of P. carbekii dnaK to H. halys 60s expression): third instars collected, vs negative control
Experimental: Total RNA was extracted from nymphs using total RNA isolation and purification kits (both from Thermo Fisher Scientific), and the extracted RNA was eluted in 100 μL water. […] Each of the PCR mixtures was 10 μL in volume. RT-qPCR was performed using a PCR amplification ramp of 1.6° C./s and the following conditions: 1) 48° C. for 30 min; 2) 95° C. for 10 minutes; 3) 95° C. for 15 seconds; 4) 55° C. for 30 seconds; 5) repeat steps 3-4 40×, 6); 95° C. for 15 seconds; 7) 55° C. for 1 minute; 8) ramp change to 0.15° C./s; 9) 95° C. for 1 second. RT-qPCR data was analyzed using analytic software (Thermo Fisher Scientific).
Working concentrations of the PHA synthesis inhibitors (vanillin, levulinic acid, acrylic acid (AA), and 2-bromooctanoic acid (2BA)) were made up to 100 μg/ml in water. The solutions of PHA inhibitors were spiked with a non-ionic wetting solution to a final concentration of 0.025% to increase the wettability and spreading of the agents on the eggs. As a negative control, no agents were added to the 0.025% non-ionic wetting solution, and as a positive control, 100 μg/ml of the antibiotic rifamycin S was used. Egg masses on leaf disks were removed from the colony in a single day during peak egg production. Each egg mass was then placed in a container with a paper towel at the bottom, and a tube of water plugged with cotton was provided as a water source for the hatchlings. 100 μl of the agent was pipetted onto the eggs to wet them completely. This allowed the agent to interact directly with the bacteria before the bacteria was able to colonize the host. Once the 1st instar hatchlings molted to the 2nd instar stage, food was provided in the form of 500 mg diet pellets (see “Halyomorpha halys lab colony rearing and maintenance” above). Late 2nd instars were collected and frozen to extract DNA to assay for the symbiont levels, as described in Example 4. […]

[1] = 100 μg/ml in water with 0.025% non-ionic wetting solution, 100 μl
[2] = Example 6: egg mass treatment, 100 μg/ml in water with 0.025% Silwet L-77, 100 μl, FIG. 6

SMILES | levels of P. carbekii (symbiont levels per host; ratio of P. carbekii dnaK to H. halys 60s expression) [1] | levels of P. carbekii (ratio of P. carbekii dnaK to H. halys 60s expression) [2] | levels of P. carbekii (ratio of P. carbekii dnaK to H. halys 60s expression) (Example 7: egg mass treatment, 100 μg/ml in water with 0.025% non-ionic wetting solution, 100 μl, FIG. 7)
COc1cc(C=O)ccc1O [vanillin] | reduction in the symbiont levels per host | – | –
CC[C@H](C)[C@H](N)C1=N[C@H](C(=O)N[C@@H](CC(C)C)C(=O)N[C@H](CCC(=O)O)C(=O)N[C@H](C(=O)N[C@H]2CCCCNC(=O)[C@H](CC(N)=O)NC(=O)[C@@H](CC(=O)O)NC(=O)[C@H](Cc3cnc[nH]3)NC(=O)[C@@H](Cc3ccccc3)NC(=O)[C@H]([C@@H](C)CC)NC(=O)[C@@H](CCCN)NC2=O)[C@@H](C)CC)CS1 [bacitracin] (HELM PEPTIDE1{[CC[C@H](C)[C@H](N)C1=N[C@H](C(=O)[*:2])CS1].L.[dE].I.K.[NCCC[C@@H](N[*:1])C(=O)[*:2]].I.[dF].H.[dD].N}$PEPTIDE1,PEPTIDE1,5:R3-11:R2$$$V2.0) | – | significantly lower | –
C=CC(=O)O [acrylic acid] | reduction in the symbiont levels per host | – | –
CCCCCCC(Br)C(=O)O (centres unmarked) [2-bromooctanoic acid] | reduction in the symbiont levels per host | – | –
CC(=O)CCC(=O)O [levulinic acid] | reduction in the symbiont levels per host | – | –
CO[C@H]1/C=C/O[C@@]2(C)Oc3c(C)c(O)c4c(c3C2=O)C(=O)C=C(NC(=O)/C(C)=C\C=C\[C@H](C)[C@H](O)[C@@H](C)[C@@H](O)[C@@H](C)[C@H](OC(C)=O)[C@@H]1C)C4=O [Rifamycin S] | significantly lower | significantly lower | significantly lower
